According to patent US11291683B2, “Bilayer tablets of B vitamins and process for preparing the same” (Access Business Group International LLC, priority 2016, dated 2022):

Key:
[1] = cited from earlier work
[2] = USP <711> in vitro dissolution of Nutrilite Vitamin B formulation NF6853; type: physicochemical
From the text: The USP requirement for instant release vitamins is for not less than 75% of label claim to be released within one hour.

[3] = Dissolution of bilayer time release multi-B vitamin tablets, USP Apparatus 2 (paddle), HPLC; type: physicochemical
Experimental: To investigate the effect of basic yeast on the dissolution profile of folic acid from vitamin B time release tablet, five formulas (Table 2) with different amounts of yeast were tested. The amount of yeast in the modified release layer was kept constant at 30 mg and included at least 15% hydroxypropyl methylcellulose (which acts as a controlled-release polymer).
Dissolution testing was performed using a qualified Sotax dissolution tester operated as USP Apparatus 2 (paddle) at 75 rpm and at 37±0.5° C. The media used for dissolution was different for different B vitamins and was selected to minimize degradation of these vitamins for the length of the study i.e. 8 hours. Each dissolution test was performed with 6 tablets. Sample aliquots were collected at 2, 4, 6, and 8 hour and filtered through 0.45-μm Millex-HV syringe filters, and analyzed by HPLC for dissolution samples.

Row | Structure (SMILES) | Solubility in Water (Per 100 ml water) [1] [g per 100 ml water] | further results
1 | Cc1cc2nc3c(=O)[nH]c(=O)nc-3n(C[C@H](O)[C@H](O)[C@H](O)CO)c2cc1C [Riboflavin (B2), riboflavin] | 0.010 | release of riboflavin (B2) within an hour ([2]; in vitro dissolution, meets USP requirement of not less than 75% of label claim within one hour): complete release; % release (input) ([2]; instant release layer of NF6853, 1 hour, cumulative release based on input): 77.12%; % release (LC) ([2]; instant release layer of NF6853, 1 hour, cumulative release based on label claim): 104%; release from the immediate release layer, % of the label claim ([3]; bi-layer tablet, immediate release layer): around 104%
2 | O=C(O)CCCC[C@@H]1SC[C@@H]2NC(=O)N[C@@H]21 [Biotin, biotin] | 0.022 | predicted release profile from modified release matrix ([3]; predicted from release of folic acid and thiamine and solubility order, biotin was not analyzed): intermediate release profile
3 | NC(=O)c1cccnc1 [Niacinamide (B3), niacinamide] | 69.1 | –
4 | Cc1ncc(CO)c(CO)c1O [Pyridoxine (B6), pyridoxine] | 30.8 | –
5 | Nc1nc2ncc(CNc3ccc(C(=O)N[C@@H](CCC(=O)O)C(=O)O)cc3)nc2c(=O)[nH]1 [Folic Acid, folic acid] | 0.016 | –
